The nature of series [1]: urinary excretion of pyridostigmine in rats. Type of series: in vivo, rat. The method, then: (§1) For animal studies, rats weighing 175-225 g were placed in metabolic cages and deprived of solid food for 14 hours. For urine studies they were hydrated by the administration of 2.5 ml per 100 g of warm water by stomach tube. This was repeated after 1 hour. An 80 μg aliquot of pyridostigmine in 0.2 ml water was injected intramuscularly into a hind limb. Urine free from feces was collected over a period of 24 hours. In blood studies a similar dose was administered intramuscularly. At selected intervals over a period of 1 hour blood specimens were collected from excised hearts.
(§2) The assay was applied to the quantitation of pyridostigmine in urine and plasma of rats following the oral administration of 450 μg of pyridostigmine bromide per kg of body weight. One ml of urine and 1.5 ml of plasma samples were used for an assay. The urinary excretion of pyridostigmine in three rats over a 24-hour period was 60.0 and 65.4% of […]

Series [2] in a line: extraction of pyridostigmine from basic solutions by organic solvents. Format: physicochemical.
A short description of series [3]: plasma levels of pyridostigmine in rats. Type of series: in vivo, rat. The method, then: as §1, §2

Consider `CN(C)C(=O)Oc1ccc[n+](C)c1` [pyridostigmine], for which the “urinary excretion of pyridostigmine (% of the total dose injected)” value in series [1] (over a 24-hour period, 450 μg/kg pyridostigmine bromide, 0.45 mg/kg, 1440 min) was 65.4%. In addition, the dose excreted at 48 h in series [1] (rat, urine, im, 0.08 mg, between 24 and 48 hours, read-out: urinary excretion (% of the total dose injected)) was < 5%. For the same compound, the dose excreted at 24 h in series [1] (rat, urine, im, 0.45 mg/kg, over a 24-hour period, 450 μg/kg pyridostigmine bromide, read-out: urinary excretion of pyridostigmine (% of the total dose injected)) was found to be 60%. Further, the “extraction from basic solutions by organic solvents of various polarities” value in series [2] is “could not extract”. For the same compound, the “initial plasma concentrations relative to that of urine” value in series [3] (average of three experiments for a single time point) is “about 1/25”. In series [3] (plasma, im, 0.08 mg, approximately 80 μg per rat, after 7 min), this compound came in with a concentration at 7 min of 250 ng/mL. Besides, the concentration at 1 h in series [3] (plasma, im, 0.08 mg, approximately 80 μg per rat, within 1 hour) was < 50 ng/mL.
